Patent US11229680B2, “Autophagy inhibitors” (The Hong Kong University of Science and Technology, priority 2017, dated 2022)
“Also recorded” adds a separate entry of the source.

Legend:
[1] = system: GABARAP; test: ITC binding to GABARAP; design: species or system human; conditions: for selectivity towards GABARAP proteins (in words): GABARAP versus LC3, FIGS. 2E and 4C
[2] = system: p62-positive puncta in COS7 cells; test: p62-positive puncta in starved COS7 cells; type: cell-based; conditions: COS7 cells expressing mCherry-tagged peptide, starvation
Source text: We further quantified the level of p62, one of the best studied selective autophagy substrates, to monitor the autophagic flux in COS7 cells expressing various AnkB/G LIR peptides under the starvation condition (Klionsky et al., 2016; Mizushima et al., 2010). Upon autophagy induction, p62 forms aggregates via its LIR motif-mediated interactions to Atg8s and subsequent incorporation into autophagosomes (Bjorkoy et al., 2005; Pankiv et al., 2007). Only a relatively low and steady level of p62 aggregates is formed if autophagy flux is normal (i.e. p62-positive autophagosomes are steadily cleared by fusing with lysosomes; (Bjorkoy et al., 2005)), and this is indeed the case when cells were expressed with the mCherry vector control (FIG. 7F). […] This is consistent with a previous siRNA-based study showing that knockdown of LC3 but not GABARAP causes p62 accumulation in COS7 cells (Maruyama et al., 2014). Taken together, the above cell-based assays reinforce our earlier conclusion derived from biochemical and structural studies, that the AnkB WT peptide can function as potent autophagy inhibitor by targeting all members of the Atg8 family and the AnkG WT or ER peptides can selectively target the GABARAPs and spare the LC3s.

[3] = target: LC3s (LC3A, LC3B, LC3C) (Homo sapiens); test: ITC binding to LC3s
[4] = system: GABARAP-positive puncta in COS7 cells; test: GABARAP-positive puncta in starved COS7 cells; type: cell-based; conditions: COS7 cells over-expressing mCherry-tagged peptide, nutrients deprivation
Source text: (§1) We used the well-established cultured COS7 cells for assessing autophagy inhibitions by the AnkB/G LIR peptides over-expressed in the cells. We quantified the numbers of endogenous LC3- or GABARAP-positive puncta, which represent LC3 or GABARAP-containing autophagic structures, as readouts to quantify autophagy inhibitions (Klionsky et al., 2016; Mizushima et al., 2010). After nutrients deprivation, obvious accumulations of LC3- or GABARAP-positive puncta could be observed in cells over-expressing mCherry only, indicating induction of autophagy by starvation (FIG. 6C6&E6). […] In contrast, expression of the mCherry-AnkB WR peptide had no impact on the LC3- or GABARAP-puncta numbers (i.e. with the same puncta numbers as expressing the mCherry vector control; FIG. 6C-F).

[5] = system: LC3-positive puncta in COS7 cells; test: LC3-positive puncta in starved COS7 cells; type: cell-based; conditions: COS7 cells over-expressing mCherry-tagged peptide, nutrients deprivation
Source text: as §1

[6] = system: SQST-1::GFP; test: SQST-1::GFP aggregate accumulation in C. elegans expressing the peptides; type: in vivo
Source text: We next determined whether the AnkB WT peptide blocks autophagy in C. elegans. Autophagy is required for degradation of a variety of protein substrates, including the C. elegans p62 homolog SQST-1 during development (Tian et al., 2010). In the wild type animals, SQST-1::GFP is weakly expressed and diffusely localized in the cytoplasm, while numerous SQST-1 aggregates accumulate in autophagy mutants (Tian et al., 2010). The AnkB WT peptide fused with the Cherry reporter (Cherry::AnkB WT) or Cherry::AnkB WR was expressed under the control of the nfya-1 promoter, which is expressed ubiquitously from the embryonic to adult stages. The expression plasmids were injected into animals carrying integrated SQST-1::GFP reporter (bpIs151) and transgenic lines were obtained and analyzed.
Similarly, we also tested the blocking effect of AnkG peptides in C. elegans. […] This observation is somewhat different from that in mammalian heterologous cells. This may be explained by the different roles of the two families in different organisms. In mammal, p62 degradation is dependent on LC3 but not GABARAP (Maruyama et al., 2014), so blocking GABARAP binding has minimal effect on p62 degradation. However, in C. elegans, LGG-1 acts upstream to LGG-2 (Manil-Segalen et al., 2014; Wu et al., 2015), so blocking either of them will lead to defect in SQST-1 degradation.
Although a large collection of autophagy mutants were isolated from genetic screens (Tian et al., 2010), assays to inhibit autophagy activity in a spatiotemporal manner are not available. We investigated whether the AnkB peptide can block autophagy in a tissue- and temporal-specific manner. The AnkB peptide was expressed under the control of tissue-specific promoters, including the promoter of myo-3 for body wall muscle cells, y37A1B.5 for hypodermal cells and vha-6 for intestinal cells. The expression constructs were injected into animals carrying the corresponding tissue-specific SQST-1::GFP expression integrated lines.
We also examined whether the AnkB peptide can impair autophagy in a temporal control manner. The expression of AnkB WT was driven by the promoter of col-19, which is expressed in hypodermal cells from the young adult stage onwards.

[7] = target: T1, LGG-2 (Caenorhabditis elegans, UniProt Q23536); test: ITC binding to purified LGG-2; design: species or system C. elegans
T1 sequence (Q23536 1-130): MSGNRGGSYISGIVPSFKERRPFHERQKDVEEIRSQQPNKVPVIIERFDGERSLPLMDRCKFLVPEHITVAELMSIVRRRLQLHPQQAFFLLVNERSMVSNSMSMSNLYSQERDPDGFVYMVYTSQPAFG
Source text: (§2) C. elegans provides an ideal platform to study autophagy and especially to investigate roles of different members of Atg8 in autophagy, because worms contain both GABARAP and LC3 subfamily Atg8s and yet simple enough with one gene for each subfamily (worm lgg-1 and lgg-2 are […] of GABARAP and LC3, respectively). It has also been shown earlier on that lgg-1 and lgg-2 act non-redundantly in autophagy (Wu et al., 2015). Prior to performing autophagy assays in worms, we measured the bindings of various AnkB/G LIR peptides to purified LGG-1 and LGG-2 using the same method as we have described for FIGS. 1&3.

[8] = target: LGG-1 (Caenorhabditis elegans, UniProt Q09490); test: ITC binding to purified LGG-1; design: species or system C. elegans
Sequence of LGG-1 (Q09490 1-116 limits assumed): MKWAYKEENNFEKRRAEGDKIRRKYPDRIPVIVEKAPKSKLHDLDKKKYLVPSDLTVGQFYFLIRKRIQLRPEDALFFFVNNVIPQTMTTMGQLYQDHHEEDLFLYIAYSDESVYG
Source text: as §2

[9] = system: C. elegans; test: C. elegans hatching and development; type: in vivo; conditions: Pnfya-1::Cherry fusion
Source text: Autophagy plays critical roles in various physiological processes occurring during development or in adult C. elegans (Zhang et al., 2015). Fewer autophagy mutants develop into larvae. […] 60.8% embryos expressing the AnkB WT peptide hatched, compared to 96.9% of embryos expressing AnkB WR (FIG. 8G). Autophagy mutants also grow slowly. […] Thus, the AnkB WT peptide blocks autophagy during C. elegans development.

[10] = system: C. elegans; test: C. elegans life span; type: in vivo
Source text: Autophagy is known to regulate the adult worm aging process. […] The autophagy defect caused by AnkB was weaker than that in autophagy mutants.

[11] = mCherry::AnkG peptides, embryonic stage (FIG. 10B-D)

## AnkG LIR C-helix alone: AnkG LIR C-helix alone (aa 1993-2010) (SSEEIREARQQAAASQSP; UniProt Q12955 1993-2010, looked up, fragment)
[1]; ITC
  binding to GABARAP (in words): no detectable binding

## AnkG W1989R: AnkG LIR with Trp1989 substituted by Arg; negative and specificity control (PEDDRTEFSSEEIREARQAAASHAPS; AnkG W1989R rat recombinant peptide, prepared in the lab)
[2]
  p62-positive puncta versus mCherry vector control: neither of the AnkB/G WR peptides could induce p62-positive puncta increase
[1]; ITC
  binding to GABARAP (in words): dramatic weakening
[3]
  binding to LC3 (in words): dramatic weakening
[4]
  GABARAP-positive puncta number: did not see any noticeable changes
[5]
  LC3-positive puncta number: did not see any noticeable changes
[6]; [11]
  SQST-1::GFP aggregates: no SQST-1::GFP aggregates

## E1599R modification of AnkB: AnkB LIR peptide with E1599R modification (VEEEWVIVSDERIEEARQKAPLEITEY; AnkB E1599R human recombinant peptide, prepared in the lab)
[1]
  selectivity towards GABARAP proteins (in words): increase in selectivity towards GABARAP proteins

## E1996R modification of AnkG: AnkG LIR peptide with E1996R modification (PEDDWTEFSSERIREARQAAASHAPS; AnkG E1996R rat recombinant peptide, prepared in the lab)
[1]
  selectivity towards GABARAP proteins (in words): increase in selectivity towards GABARAP proteins

## PEDDWTRFSSEEIREARQAAASHAPS (AnkG E1991R rat recombinant peptide, prepared in the lab) [modified from rat 480 kD AnkG residues 1985-2010]
[2]
  p62-positive puncta versus mCherry vector control: no statistically significant increase
[1]
  selectivity towards GABARAP proteins (in words): increase in selectivity towards GABARAP proteins
[1]; ITC
  binding to GABARAP (in words): slightly weaker affinity
[4]
  GABARAP-positive puncta number: potently inhibited
[5]
  LC3-positive puncta number: essentially no impact
[7]
  weaker affinity towards LGG-2 than LGG-1: ~1,000 fold
[8]
  binding to LGG-1 (in words): retained strong binding
[6]; Cherry fusion, hyp7 promoter, epidermis, embryonic to adult stages
  SQST-1::GFP aggregates: caused accumulation of SQST-1::GFP aggregates
[6]; Phyp7::mCherry::AnkG peptides, hypodermis, L4 larvae
  SQST-1::GFP aggregates: a large number of SQST-1::GFP aggregates accumulate
[6]; [11]
  SQST-1::GFP aggregates: accumulation of SQST-1::GFP aggregates

## VEEEWVIVSDEEIEEARQKAPLEITEY [AnkB LIR, recombinant peptide from natural human 440 kD AnkB residues 1588-1614]
[2]
  p62-positive puncta versus mCherry vector control: dramatically increased
[1]; ITC
  affinity to GABARAP higher than AnkG LIR: about 10 fold
[9]
  additional time for embryos to develop into L1 larvae compared to AnkB WR: approximately two more hours
  additional time to develop into young adults compared to AnkB WR: ~6 h
  embryos hatched (hatch rate): 60.8%
[4]
  GABARAP-positive puncta number: reduced the LC3- and GABARAP-puncta to the background level
[10]; Pmyo-3::ch:: fusion (muscle)
  Median lifespan: 18.12 days
[10]; Pnfya-1::Cherry fusion
  life span compared to animals expressing Cherry::AnkB WR: dramatically shortened the life span
[10]; Pnfya-1::ch:: fusion (ubiquitous)
  Median lifespan: 16.32 days
[10]; Pvha-6::ch:: fusion (intestine)
  Median lifespan: 18.87 days
[10]; Py37a1b.5::ch:: fusion (hypodermal cells)
  Median lifespan: 16.64 days
[10]; expressed in hypodermal cells
  mean life span: slightly reduced the mean life span
[10]; expressed in muscle cells and intestinal cells
  life span compared to animals expressing Cherry::AnkB WR: did not significantly reduce the life span
[5]
  LC3-positive puncta number: reduced the LC3- and GABARAP-puncta to the background level
[7]; purified LGG-2
  binding to LGG-2 (in words): binds very strongly
[8]
  binding to LGG-1 (in words): binds very strongly
[6]; Cherry fusion, FIG. 8, embryo
  SQST-1::GFP aggregates: a large number of SQST-1::GFP aggregates accumulated
[6]; Cherry fusion, FIG. 8, larvae
  SQST-1::GFP aggregates: a large number of SQST-1::GFP aggregates
[6]; Cherry fusion, nfya-1 promoter (ubiquitous), multiple tissues, embryonic to adult stages
  SQST-1::GFP aggregates: accumulated a large number of SQST-1::GFP aggregates
[6]; col-19 promoter (hypodermal cells from young adult stage onwards), adult
  SQST-1::GFP aggregates: adult-specific accumulation of SQST-1::GFP aggregates
[6]; col-19 promoter, embryonic to L4 larval stages (no peptide expression yet), listed as AnkB WT
  SQST-1::GFP aggregates: no aggregates were found; also recorded: no SQST-1::GFP aggregates
[6]; mCherry fusion, hypodermal cells, embryo (FIG. 9)
  SQST-1::GFP aggregates: a large number of SQST-1::GFP aggregates accumulate
[6]; mCherry fusion, hypodermis, L4 larvae (FIG. 9)
  SQST-1::GFP aggregates: a large number of SQST-1::GFP aggregates accumulate
[6]; myo-3 promoter, muscle cells, L4 larvae
  SQST-1::GFP aggregates: SQST-1::GFP aggregates accumulate
[6]; myo-3 promoter, muscle cells, L4 larvae (FIG. 10W-Y), listed as AnkB WT
  dependence of SQST-1::GFP aggregates on peptide expression level: correlate with the degree of autophagy inhibition; also recorded: increases with increasing expression
[6]; myo-3 promoter, muscle, embryo
  SQST-1::GFP aggregates: a large number of SQST-1::GFP aggregates accumulate
[6]; tissue-specific promoters myo-3, y37A1B.5, vha-6, embryonic to adult stages
  SQST-1::GFP aggregates: a large number of SQST-1::GFP aggregates accumulated
[6]; vha-6 promoter, intestine cells, embryo
  SQST-1::GFP aggregates: SQST-1::GFP aggregates accumulate
[6]; vha-6 promoter, intestine cells, larvae (FIG. 10S, 10T)
  SQST-1::GFP aggregates: SQST-1::GFP aggregates accumulate
